These results are taken from ChEMBL document CHEMBL4613208, “Isatin derivatives and their anti-bacterial activities” (Eur J Med Chem, 2019).

Assay [1] concerns Escherichia coli. Nature of the assay: In vivo antibacterial activity against Escherichia coli infected in po dosed mouse. The class given is functional.
Assay [2] deals with Shigella flexneri. Nature of the assay: Antibacterial activity against Shigella flexneri. The class given is functional.
Assay [3] relates to Streptococcus pyogenes. Nature of the assay: Antibacterial activity against Streptococcus pyogenes. The class given is functional.
Assay [4] deals with Proteus vulgaris. Kind of assay: Antibacterial activity against Proteus vulgaris. The class given is functional.
For assay [5], the system named is Staphylococcus aureus. Kind of assay: Antibacterial activity against Staphylococcus aureus. The class given is functional, organism-based.
For assay [6], the system named is Klebsiella pneumoniae. Kind of assay: Antibacterial activity against Klebsiella pneumoniae. The class given is functional.
Assay [7] has as its system Bacillus subtilis. Kind of assay: Antibacterial activity against Bacillus subtilis. The class given is functional.
The subject of assay [8] is Escherichia coli. Kind of assay: Antibacterial activity against Escherichia coli by two-fold serial dilution technique. The class given is functional.
For assay [9], the system named is Bacillus subtilis. Nature of the assay: Antibacterial activity against Bacillus subtilis by two-fold serial dilution technique. The class given is functional.
Assay [10] deals with Staphylococcus aureus. Kind of assay: Antibacterial activity against Staphylococcus aureus by two-fold serial dilution technique. The class given is functional.
Assay [11] deals with Pseudomonas aeruginosa. Nature of the assay: Antibacterial activity against Pseudomonas aeruginosa by two-fold serial dilution technique. The class given is functional.
Assay [12] concerns Escherichia coli. Nature of the assay: Antibacterial activity against Escherichia coli ATCC 25922 after 24 hrs by agar well diffusion technique. The class given is functional. To be noted: ATCC 25922, 24 h. (Agar diffusion results depend on both activity and mobility in agar.)
Assay [13] deals with Staphylococcus aureus. Nature of the assay: Antibacterial activity against Staphylococcus aureus ATCC 25923 after 24 hrs by agar well diffusion technique. The class given is functional. To be noted: ATCC 25923, 24 h.
In assay [14] the test system is Bacillus cereus. Nature of the assay: Antibacterial activity against Bacillus cereus after 24 hrs by agar well diffusion technique. The class given is functional.
The subject of assay [15] is Shigella dysenteriae. Kind of assay: Antibacterial activity against Shigella dysenteriae after 24 hrs by agar well diffusion technique. The class given is functional.
Assay [16] relates to Staphylococcus epidermidis. Kind of assay: Antibacterial activity against Staphylococcus epidermidis. The class given is functional.
In assay [17] the test system is Priestia megaterium. Nature of the assay: Antibacterial activity against Bacillus megaterium. The class given is functional.
The subject of assay [18] is Pseudomonas aeruginosa. Kind of assay: Antibacterial activity against Pseudomonas aeruginosa. The class given is functional, organism-based.
For assay [19], the system named is Bacillus pumilus. Nature of the assay: Antibacterial activity against Bacillus pumilus. The class given is functional.
In assay [20] the test system is Shigella dysenteriae. Nature of the assay: Potency index, ratio of MIC for sulfamethoxazole to MIC for test compound for antibacterial activity against Shigella dysenteriae after 24 hrs by agar well diffusion technique. The class given is functional.
Assay [21] relates to Salmonella typhi. Nature of the assay: Antibacterial activity against Salmonella typhi. The conditions noted are these: Salmonella enterica. The class given is functional, Salmonella enterica subsp. enterica serovar Typhi.
For assay [22], the system named is Escherichia coli. Nature of the assay: Antibacterial activity against Escherichia coli. The class given is functional, organism-based.
For assay [23], the system named is Vibrio cholerae. Kind of assay: Antibacterial activity against Vibrio cholerae. The class given is functional.
For assay [24], the system named is Citrobacter freundii. Kind of assay: Antibacterial activity against Citrobacter freundii. The class given is functional.
For assay [25], the system named is Micrococcus luteus. Kind of assay: Antibacterial activity against Micrococcus luteus after 24 hrs by paper disc diffusion technique. The class given is functional. The conditions noted are these: Micrococcus luteus, 24 h.
Assay [26] relates to Pseudomonas aeruginosa. Nature of the assay: Antibacterial activity against Pseudomonas aeruginosa after 24 hrs by paper disc diffusion technique. The class given is functional. To be noted: Pseudomonas aeruginosa, 24 h; read-out: MIC.
For assay [27], the system named is Staphylococcus epidermidis. Nature of the assay: Antibacterial activity against Staphylococcus epidermidis after 24 hrs by paper disc diffusion technique. The class given is functional. The conditions noted are these: Staphylococcus epidermidis, 24 h.
In assay [28] the test system is Staphylococcus aureus. Nature of the assay: Antibacterial activity against Staphylococcus aureus after 24 hrs by paper disc diffusion technique. The class given is functional. To be noted: Staphylococcus aureus, 24 h; read-out: MIC.
Assay [29] has as its system Klebsiella pneumoniae. Nature of the assay: Antibacterial activity against Klebsiella pneumoniae after 24 hrs by paper disc diffusion technique. The class given is functional. To be noted: Klebsiella pneumoniae, 24 h; read-out: MIC.
Assay [30] concerns Escherichia coli. Nature of the assay: Antibacterial activity against Escherichia coli after 24 hrs by paper disc diffusion technique. The class given is functional. To be noted: Escherichia coli, 24 h; read-out: MIC.

The structures appear in SMILES notation. Converted amounts (≈) assume the structure as drawn. Bounds are passed on as bounds.

As to `CCn1cc(C(=O)O)c(=O)c2cc(F)c(N3CCNCC3)cc21` [NORFLOXACIN], the ED50 in [1] stood at 6 mg/kg.
Regarding `O=C1Nc2ccc(S(=O)(=O)N3CCOCC3)cc2C1=O`, the MIC in assay [2], in [3], in assay [4], in assay [5], in assay [6] and in assay [7] was 0.007 to 0.49 µg/mL (≈ 0.0236 to 1.65 µM) throughout.
As to `O=C(N/N=C1\C(=O)N(Cc2ccccc2)c2ccc(Cl)cc21)N/N=C1\C(=O)N(Cc2ccccc2)c2ccc(Cl)cc21`, the MIC in [8], in assay [9], in [10] and in [11] was 6.25 to 100 µg/mL (≈ 10.5 to 167 µM) each time.
Take `Cc1cc(NS(=O)(=O)c2ccc(/N=C3\C(=O)Nc4ccc(Cl)cc43)cc2)no1`: the MIC in [12], in assay [13], in assay [14] and in assay [15] was 1 to 15 µg/mL (≈ 2.4 to 36 µM) throughout.
`CC1S/C(=N/N=C2\C(=O)Nc3ccc(S(=O)(=O)N4CCOCC4)cc32)N(c2ccccc2)C1=O` (stereo not drawn): the MIC in assay [2], in assay [3], in [4], in [5], in [6] and in assay [7] was 0.03 to 3.9 µg/mL (≈ 0.0601 to 7.81 µM) throughout.
On to `Cc1ccc2c(c1)/C(=N/c1nc3ccccc3[nH]1)C(=O)N2`, for which the minimal inhibitory concentration (MIC) in assay [12], in assay [13], in [14] and in [15] was 1 to 15 µg/mL (≈ 3.62 to 54.3 µM) in each case.
As to `N[C@@H](C(=O)N[C@@H]1C(=O)N2C(C(=O)O)=C(Cl)CS[C@H]12)c1ccccc1` [CEFACLOR ANHYDROUS], the MIC in [16], in [17], in assay [5], in [18] and in assay [19] was 2 to 8 µg/mL (≈ 5.44 to 21.8 µM) each time.
Regarding `O=C(N/N=C1\C(=O)Nc2ccccc21)N/N=C1\C(=O)Nc2ccccc21`, the MIC in [8], in assay [9], in assay [10] and in assay [11] was 6.25 to 100 µg/mL (≈ 17.9 to 287 µM) throughout.
Regarding `Cc1ccc2c(c1)/C(=N/c1ccc(S(=O)(=O)Nc3cc(C)on3)cc1)C(=O)N2`, the MIC in assay [12] stood at 5 µg/mL (≈ 12.6 µM); in assay [13] it was 5 µg/mL (≈ 12.6 µM); in [14] it was 5 µg/mL (≈ 12.6 µM); in assay [15] it was 1 µg/mL (≈ 2.52 µM). For the same compound, the Ratio in assay [20] amounted to 2.5.
With `O=C1C(=O)N(CN2CCN(c3cc4c(cc3F)c(=O)c(C(=O)O)cn4C3CC3)CC2)c2ccccc21`, the minimal inhibitory concentration (MIC) in assay [2] lay within 0.1 to 0.5 µg/mL (≈ 0.204 to 1.02 µM); in assay [16], 0.1 to 0.5 µg/mL (≈ 0.204 to 1.02 µM); in [21] it was 0.1 to 0.5 µg/mL; in assay [22] it was 0.1 to 0.5 µg/mL (≈ 0.204 to 1.02 µM); in [23] it was 0.1 to 0.5 µg/mL (≈ 0.204 to 1.02 µM); in assay [5], 0.1 to 0.5 µg/mL (≈ 0.204 to 1.02 µM). The minimum inhibitory concentration (MIC) in assay [6], in [24] and in assay [18] was 0.1 to 0.5 µg/mL (≈ 0.204 to 1.02 µM) in each case.
Consider `O=C(O)c1cn(C2CC2)c2cc(N3CCNCC3)c(F)cc2c1=O` [CIPROFLOXACIN], for which the MIC in [25] was 3.9 to 15.6 µg/mL (≈ 11.8 to 47.1 µM); in [21], 2 nM; in [26] it was 3.9 to 15.6 µg/mL (≈ 11.8 to 47.1 µM); in assay [27], 3.9 to 15.6 µg/mL (≈ 11.8 to 47.1 µM); in assay [28], 3.9 to 15.6 µg/mL (≈ 11.8 to 47.1 µM); in assay [22] it was less than 5 µg/mL. The MIC in assay [29] is 3.9 to 15.6 µg/mL (≈ 11.8 to 47.1 µM); in assay [30], 3.9 to 15.6 µg/mL (≈ 11.8 to 47.1 µM); in assay [5], less than 5 µg/mL; in [18] it was less than 5 µg/mL; in [7], less than 5 µg/mL.
As for `CC(=O)NC[C@H]1CN(c2ccc(N3CCOCC3)c(F)c2)C(=O)O1` [LINEZOLID], the MIC in [16], in assay [17], in [5], in assay [18] and in assay [19] was 4 to 8 µg/mL (≈ 11.9 to 23.7 µM) throughout.
In the case of `CCn1cc(C(=O)O)c(=O)c2cc(F)c(N3CCNC(C)C3)c(F)c21` (stereo not drawn) [LOMEFLOXACIN], the MIC in assay [2] fell in the range of 0.25 to 2.5 µg/mL (≈ 0.712 to 7.12 µM); in assay [16], 0.25 to 2.5 µg/mL (≈ 0.712 to 7.12 µM); in assay [21], 0.25 to 2.5 µg/mL; in [22], 0.25 to 2.5 µg/mL (≈ 0.712 to 7.12 µM); in [23] it was 0.25 to 2.5 µg/mL (≈ 0.712 to 7.12 µM); in [5] it was 0.25 to 2.5 µg/mL (≈ 0.712 to 7.12 µM). The MIC in assay [6], in assay [24] and in assay [18] was 0.25 to 2.5 µg/mL (≈ 0.712 to 7.12 µM) in each case.

What is called ED50 is the dose at which the effect has come halfway, by size or by number of responders. A low value points to greater potency. The MIC is the lowest concentration found to suppress growth.
